Test results from PubChem BioAssay (NCI).
“And” between values parts separate entries of the source, which are not always exact repeats. Equal entries are not always repeated.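 Method: 48-hour compound exposure of cells in 96-well plates, five concentrations, linear interpolation of endpoints. The concentration for 50% growth inhibition is given as GI50. The concentration for full growth arrest is given as TGI.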

Experiments:
Assay in all cases: NCI tumour cell line growth inhibition, 48 h
OVCAR-3 ovarian = test system: OVCAR-3 ovarian
HCC-2998 colon = test system: HCC-2998 colon
HCT-116 colon = test system: HCT-116 colon
COLO 205 colon = test system: COLO 205 colon
HOP-92 NSCLC = test system: HOP-92 NSCLC
SF-268 CNS = test system: SF-268 CNS
UO-31 renal = test system: UO-31 renal
CAKI-1 renal = test system: CAKI-1 renal
MOLT-4 leukemia = test system: MOLT-4 leukemia

Row | Structure (SMILES) | GI50 (OVCAR-3 ovarian) | TGI (OVCAR-3 ovarian) | GI50 (HCC-2998 colon) | TGI (HCC-2998 colon) | GI50 (HCT-116 colon) | TGI (HCT-116 colon) | GI50 (COLO 205 colon) | TGI (COLO 205 colon) | GI50 (HOP-92 NSCLC) | TGI (HOP-92 NSCLC) | GI50 (SF-268 CNS) | TGI (SF-268 CNS) | GI50 (UO-31 renal) | TGI (UO-31 renal) | GI50 (CAKI-1 renal) | TGI (CAKI-1 renal) | GI50 (MOLT-4 leukemia) | TGI (MOLT-4 leukemia)
1 | COc1cc(C(=O)/C=C/c2sc(Cl)nc2Cl)cc(OC)c1OC | 1.77 µM | 3.21 µM | 1.8 µM | 3.31 µM | 1.75 µM | 3.18 µM | 1.72 µM | 3.9 µM | 1.6 µM | 3.19 µM | 1.79 µM | 3.77 µM | 1.44 µM | 2.75 µM | 1.61 µM | 2.99 µM | 2.21 µM | 5.49 µM
2 | COc1ccc(-n2/c(=N/C(=S)N(C)C)ss/c2=N\C(=S)N(C)C)cc1 |  | 53.1 µM |  | > 100 µM |  | > 100 µM |  | > 100 µM |  |  |  | > 100 µM |  | > 100 µM |  | > 100 µM |  | > 100 µM
3 | CC(=O)NC1=C(NCC(C)(C)C)C(=O)c2ccccc2C1=O |  | > 100 µM |  | > 100 µM |  | > 100 µM |  | > 100 µM |  |  |  | > 100 µM |  | > 100 µM |  |  |  | > 100 µM
4 | O=C1NC2(CCCCC2)C2CCCCC(O)C12 (centres undefined) |  | > 100 µM |  | > 100 µM |  | > 100 µM |  | > 100 µM |  |  |  | > 100 µM |  | > 100 µM |  | > 100 µM |  | > 100 µM
5 | Clc1cccc(Cc2cn3cc(-c4ccccc4)nc3s2)c1Cl | 37.9 µM | > 100 µM | 59.5 µM | > 100 µM | > 100 µM | > 100 µM | > 100 µM | > 100 µM | 2.84 µM | 16.9 µM | 59.9 µM | > 100 µM | > 100 µM | > 100 µM | > 100 µM | > 100 µM | > 100 µM | > 100 µM
6 | O=C(NCCNc1nccc(-c2c(-c3cccc(O)c3)nc3sccn23)n1)c1ccccc1O | 5.57 µM | 47.8 µM | 5.67 µM | 22.5 µM | 3.42 µM | 14.9 µM | 5.32 µM | 23.4 µM | 2.92 µM | 28.6 µM | 5.4 µM | 46.6 µM | 5 µM | 19.8 µM | 3.23 µM | 21.8 µM | 4.87 µM | > 52.2 µM
7 | O=c1n(CC2CO2)c(=O)n(CC2CO2)n1CC1CO1 (centres undefined) | 13.7 µM | > 55.5 µM | 2.17 µM | 37.7 µM | 18.9 µM | > 100 µM | 6.04 µM | 41.5 µM | 49.3 µM | > 100 µM | 15.7 µM | > 100 µM | 7.86 µM | > 76.2 µM | 2.22 µM | 21.7 µM | 4.46 µM | > 100 µM
8 | NC1CCC(Nc2nc(NCc3ccc(-c4ccco4)nc3)c3ncn(C4CCCC4)c3n2)CC1 (centres undefined) | 0.0273 µM | 0.0778 µM | 0.0316 µM | 0.627 µM | 0.0324 µM | 11.1 µM | 0.0143 µM | 0.0314 µM | 0.0275 µM | 0.0803 µM | 0.011 µM | 0.169 µM and 1.3 µM | 0.17 µM | 0.747 µM | 2.86 µM | 12.6 µM | 0.0222 µM | 
9 | c1cc2c(cc1NC1=NCCO1)CCC2 |  | > 10 µM |  | > 10 µM |  | > 10 µM |  | > 10 µM |  | > 10 µM |  | > 10 µM |  |  |  |  |  | > 10 µM
10 | CNC(=O)c1cc(Oc2ccc3nc(NC(=O)Nc4ccc(Cl)c(C(F)(F)F)c4)sc3c2)ccn1 |  |  |  |  | 1.89 µM | 5.39 µM |  |  | 1.15 µM | 3.24 µM | 2.34 µM | 16.4 µM |  |  |  |  |  | 
11 | C=C(CNCCO)[C@@H]1CC[C@]2(CO)CC[C@]3(C)[C@H](CC[C@@H]4[C@@]5(C)CCC(N)C(C)(C)[C@@H]5CC[C@]43C)[C@@H]12 (some centres undefined) | 7.71 µM | 20.7 µM | 1.98 µM | 3.81 µM | 1.81 µM | 3.84 µM | 1.73 µM | 3.35 µM | 1.29 µM | 2.76 µM | 2.61 µM | 10.3 µM | 13.2 µM | 26.8 µM | 4.86 µM | 18.1 µM | 1.99 µM | 5.84 µM
12 | Cn1ccnc1C(=O)/C=C/c1ccc(CC(=O)Nc2ccc(Br)cc2)cc1 | 4.02 µM | 14.4 µM | 2.95 µM | 5.9 µM | 1.56 µM | 4.63 µM | 3.56 µM | 8.28 µM | 3.15 µM | 8.26 µM | 3.34 µM | 13 µM | 2.19 µM | 4.39 µM | 3.59 µM | 11.6 µM | 3.69 µM | 14.8 µM
13 | O=C(O)CCSC(=O)Nc1cccc(F)c1 |  | > 100 µM |  | > 100 µM |  |  |  | > 100 µM |  |  |  | > 100 µM |  | > 100 µM |  |  |  | > 100 µM
14 | O=C1/C(=C/c2ccc([N+](=O)[O-])cc2)COc2ccc(O)c(O)c21 | 0.79 µM | 2.14 µM | 1.76 µM | 3.38 µM | 1.57 µM | 3.35 µM | 1.47 µM | 3.69 µM | 1.99 µM | 4.96 µM | 1.51 µM | 3.15 µM | 0.696 µM | 2.23 µM | 1.27 µM | 2.54 µM | 1.29 µM | > 100 µM
15 | Cc1cc(=O)[nH]c2cc3oc4ccccc4c3cc12 |  | > 89.4 µM |  | 16.3 µM |  | > 100 µM |  | > 100 µM |  | > 100 µM |  | > 93.7 µM |  | > 100 µM |  | > 100 µM |  | > 48.5 µM
16 | O=C1c2cccnc2-c2nc(-c3ccccc3[N+](=O)[O-])cc3c2c1nc1ccccc13 | 0.432 µM | > 32.4 µM | 19.7 µM | 45 µM | 5.83 µM | 16.7 µM | 24.4 µM | > 62.4 µM | 8.7 µM | > 100 µM | 6.39 µM | > 69.1 µM | 12.5 µM | 32.5 µM | 18 µM | 43.3 µM |  | > 100 µM
17 | Nc1ccc(C(=O)N/C(=C\c2ccc3c(c2)OCO3)c2nc3[nH]c(=S)[nH]c(=O)c3[nH]2)cc1 |  | > 100 µM |  | > 100 µM |  |  |  | > 100 µM |  | > 100 µM |  | > 100 µM |  | > 100 µM |  | > 100 µM |  | > 100 µM
